In patent US11312737B2, “Amide-linked EP4 agonist-bisphosphonate compounds and uses thereof” (SIMON FRASER UNIVERSITY, priority 2015, dated 2022):

What was measured:
leukocytes = assay: Neutrophil function effects; format: cell-based; details: for activity in leukocytes (neutrophil function) / neutrophil speed: FIG. 13
[1] = In vivo uptake and release studies of tritium labelled C3-conjugate over 28 days; details: rat
Description: In vivo uptake and release studies using tritium labelled C3-conjugate compound were performed. After intravenous dosing of 1-5 μCi/5 mg/kg of [^3H]-C3 to 15 rats, groups of 3 rats were euthanized at each time point a at t=6 h, 24 h, 7 d, 14 d, 28 d). The radioactivity in blood samples, spleen, liver and long bones was counted for each group of rats. […] After one week, 53% of label was eliminated and only traces were detected after 28 days (FIG. 6). In spleen, the counted radioactivity decreased from 1% 6 hours after dosing to 0.4% at t=28 days (FIG. 6).

[2] = Stability of conjugate compounds in rat plasma; details: fresh rat plasma, 37° C., 100 μg/mL
Description: The amide-linked conjugate compounds were examined for their stability in rat plasma. […] The mixture was then incubated at 37° C. for 24 h. Aliquots of 10 μL were removed at 0, 2, 4, 6, 7 and 24 h, mixed to 10 mg of bone powder and 10-fold diluted with water in a 0.6 mL Eppendorf tube. A gentle stirring was applied for 20 min. 50 μL were then used to count the activity.

[3] = In vivo uptake studies of tritium labelled C3, C4 and C5-conjugates 6 hours after dosing; details: rat; for % of the initial dose found in muscle: 6 hours after dosing; for uptake into long bones, % of initial dose: 6 hours after injection, tritium label
Description: The three conjugate compounds, C3, C4 and C5, were radiolabelled with tritium in the EP4 agonist moiety and used to monitor in vivo distribution in rat organs and uptake into bone after intravenous dosing.
The radioactivity in organs (heart, kidney, brain, muscle, one piece of muscle attached to bone, spleen and liver) was counted 6 hours after dosing (FIG. 3). For the C3-conjugate compound, calculations were done based on results obtained from two rats. Most of the labelled conjugate compounds were taken up into liver (65-74%), and about 1% and 0.2% were found in spleen and kidneys for all labelled conjugate compounds, after 6 hours. About 0.2% of the initial dose of the C4 and C5-conjugate compounds, and 2% of the C3-conjugate compound, was found in muscle. All other organs contained 0.05% of the initial dose of the conjugate compounds.
Finally, the uptake of the tritiated C3, C4 and C5-conjugate compounds into bones was counted (FIG. 4). All three conjugate compounds were well taken up into bone.

SMILES: O=C(O)Cc1ccc(C(=O)NCCC(O)(P(=O)(O)O)P(=O)(O)O)cc1 [fragment 5, Sodium2-(4-((3-hydroxy-3,3-bis(hydroxyoxidophosphoryl)propyl)carbamoyl)phenyl)acetate]
- activity in leukocytes (neutrophil function) (leukocytes): neither fragment 4 nor 5 exhibited significant activity

SMILES: CCOC(=O)CCCCCCN1C(=O)CC[C@@H]1/C=C/[C@@H](OC(=O)Cc1ccc(C(=O)NCCCC(O)(P(=O)(O)O)P(=O)(O)O)cc1)C(F)(F)c1ccccc1 [C3-conjugate, Sodium (4-(4-(2-(((R,E)-4-((R)-1-(7-ethoxy-7-oxoheptyl)-5-oxopyrrolidin-2-yl)-1,1-difluoro-1-phenylbut-3-en-2-yl)oxy)-2-oxoethyl)benzamido)-1-hydroxybutane-1,1-diyl)bis(hydrogen phosphonate)]
- counted radioactivity in spleen ([1]; 6 hours after dosing): 1%
- tritiated conjugate found in liver ([1]; 6 hours after injection): 69%
- tritiated conjugate in liver ([1]; after 24 hours): remained in a high proportion
- conjugate remained attached to bone ([1]; after 7 days, tritium label): 5.5%
- tritiated conjugate in liver ([1]; after 28 days): only traces
- label eliminated from liver ([1]; after one week): 53%
- half-life (tritium label on bone) ([1]; calculated from bone data over 28 days): about 8 days
- % of the initial dose observed in bone ([1]; end of the study (28 days), tritium label): 1.4%
- activity detected in the bloodstream ([1]; over 28 days, tritium label): Very low activity
- counted radioactivity in spleen ([1]; t=28 days): 0.4%
- clearance from plasma ([1]; tritium label): rapid clearance
- hydrolysis after 24 h-incubation [2]: About 10%
- % of the initial dose found in muscle [3]: ~2%
- neutrophil speed (leukocytes): low neutrophil speed

SMILES: O=C(O)Cc1ccc(C(=O)NCCCC(O)(P(=O)(O)O)P(=O)(O)O)cc1 [fragment 4, Sodium 2-(4-((4-hydroxy-4,4-bis(hydroxyoxidophosphoryl)butyl)carbamoyl)phenyl)acetate]
- biological activity compared to alendronate alone (leukocytes): biologically inactive
- activity in leukocytes (neutrophil function) (leukocytes): neither fragment 4 nor 5 exhibited significant activity

SMILES: CCOC(=O)CCCCCCN1C(=O)CC[C@@H]1/C=C/[C@@H](OC(=O)Cc1ccc(C(=O)NCCCCCC(O)(P(=O)(O)O)P(=O)(O)O)cc1)C(F)(F)c1ccccc1 [C5-conjugate, Sodium (6-(4-(2-(((R,E)-4-((R)-1-(7-ethoxy-7-oxoheptyl)-5-oxopyrrolidin-2-yl)-1,1-difluoro-1-phenyibut-3-en-2-yl)oxy)-2-oxoethyl)benzamido)-1-hydroxyhexane-1,1-diyl)bis(hydrogen phosphonate)]
- % of the initial dose found in muscle [3]: About 0.2%
- uptake into long bones, % of initial dose [3]: about 10%

SMILES: NCCC(O)(P(=O)(O)O)P(=O)(O)O [pamidronate, 3-amino-1-hydroxypropylidene-1,1-bisphosphonic acid, reference compound]
- activity in leukocytes (neutrophil function) (leukocytes): active

SMILES: CCOC(=O)CCCCCCN1C(=O)CC[C@@H]1/C=C/[C@@H](O)C(F)(F)c1ccccc1 [EP4 agonist, ethyl 7-((R)-2-((R,E)-4,4-difluoro-3-hydroxy-4-phenylbut-1-en-1-yl)-5-oxopyrrolidin-1-yl)heptanoate]
- neutrophil speed (leukocytes): low neutrophil speed

SMILES: CCOC(=O)CCCCCCN1C(=O)CC[C@@H]1/C=C/[C@@H](OC(=O)Cc1ccc(C(=O)NCCC(O)(P(=O)(O)O)P(=O)(O)O)cc1)C(F)(F)c1ccccc1 [C4-conjugate, Sodium (3-(4-(2-(((R,E)-4-((R)-1-(7-ethoxy-7-oxoheptyl)-5-oxopyrrolidin-2-yl)-1,1-difluoro-1-phenylbut-3-en-2-yl)oxy)-2-oxoethypbenzamido)-1-hydroxypropane-1,1-diyl)bis(hydrogen phosphonate)]
- % of the initial dose found in muscle [3]: About 0.2%
- uptake into long bones, % of initial dose [3]: about 10%
- activity in leukocytes (neutrophil function) (leukocytes): active

SMILES: NCCCC(O)(P(=O)(O)O)P(=O)(O)O [alendronate, 4-amino-1-hydroxybutylidene-1,1-bisphosphonic acid monosodium trihydrate, reference compound]
- activity in leukocytes (neutrophil function) (leukocytes): active
